Test results: the supplement of paper PMC10307832

Experiments:
Assay in all cases: relative viability (nuclei count vs DMSO), 5 days (fraction); higher = more cells survive
Decitabine + Crizotinib = compound: Nc1ncn([C@H]2C[C@H](O)[C@@H](CO)O2)c(=O)n1 [Decitabine] + C[C@@H](Oc1cc(-c2cnn(C3CCNCC3)c2)cnc1N)c1c(Cl)ccc(F)c1Cl [Crizotinib] (partner 1 µM)
Procedure, shortened: (§1)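 Five library-drug doses in √10 steps were combined with a fixed anchor-drug dose, or a single drug was given alone, by pin tool to lung cancer cell lines in 1536-well plates the day after seeding. Nuclei were stained and counted after 5 days. Relative viability is the nuclei count in treated wells over that in vehicle wells, taken as the median of duplicate plates.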

Cediranib + Vorinostat = compound: COc1cc2c(Oc3ccc4[nH]c(C)cc4c3F)ncnc2cc1OCCCN1CCCC1 [Cediranib] + O=C(CCCCCCC(=O)Nc1ccccc1)NO [Vorinostat] (partner 1 µM)
Procedure, shortened: as §1

[1] = compound: O=C(C[C@H]1NCCC[C@@H]1O)Cn1cnc2cc(Br)c(Cl)cc2c1=O (racemic) [Halofuginone] + C[C@]1(O)C[C@@H](c2nc(-c3ccc4ccc(-c5ccccc5)nc4c3)c3c(N)nccn32)C1 [Linsitinib] (partner 1 µM)
Procedure, shortened: as §1

Cediranib + Crizotinib = compound: COc1cc2c(Oc3ccc4[nH]c(C)cc4c3F)ncnc2cc1OCCCN1CCCC1 [Cediranib] + C[C@@H](Oc1cc(-c2cnn(C3CCNCC3)c2)cnc1N)c1c(Cl)ccc(F)c1Cl [Crizotinib] (partner 1 µM)
Procedure, shortened: as §1

| Cell Line | relative viability (Decitabine + Crizotinib; first compound 0.04 µM) | relative viability (Decitabine + Crizotinib; first compound 0.1265 µM) | relative viability (Decitabine + Crizotinib; first compound 0.4 µM) | relative viability (Decitabine + Crizotinib; first compound 1.265 µM) | relative viability (Decitabine + Crizotinib; first compound 4 µM) | relative viability (Cediranib + Vorinostat; first compound 0.04 µM) | relative viability (Cediranib + Vorinostat; first compound 0.4 µM) | relative viability (Cediranib + Vorinostat; first compound 1.265 µM) | relative viability (Cediranib + Vorinostat; first compound 4 µM) | relative viability ([1]; first compound 0.001 µM) | relative viability ([1]; first compound 0.003162 µM) | relative viability ([1]; first compound 0.01 µM) | relative viability ([1]; first compound 0.03162 µM) | relative viability ([1]; first compound 0.1 µM) | relative viability (Cediranib + Crizotinib; first compound 0.04 µM) | relative viability (Cediranib + Crizotinib; first compound 0.1265 µM) | relative viability (Cediranib + Crizotinib; first compound 0.4 µM) | relative viability (Cediranib + Crizotinib; first compound 1.265 µM) | relative viability (Cediranib + Crizotinib; first compound 4 µM) | relative viability (Cediranib + Vorinostat; first compound 0.1265 µM) |
| --- | --- | --- | --- | --- | --- | --- | --- | --- | --- | --- | --- | --- | --- | --- | --- | --- | --- | --- | --- | --- |
| NCI-H3122 | 0.258 | 0.251 | 0.277 | 0.346 | 0.28 | 1.02 | 0.985 | 1.13 | 1.07 | 1.01 | 1.04 | 0.993 | 0.952 | 0.968 | 0.259 | 0.297 | 0.277 | 0.256 | 0.275 | – |
| NCI-H1651 | 0.788 | 0.836 | 0.755 | 0.586 | 0.635 | 0.518 | 0.58 | 0.53 | 0.555 | 1.07 | 0.978 | 0.994 | 0.6 | 0.332 | 0.887 | 0.904 | 0.876 | 0.89 | 0.976 | 0.591 |
| NCI-H441 | 0.361 | 0.224 | 0.223 | 0.188 | 0.184 | 0.864 | 0.767 | 0.824 | 0.909 | 0.6 | 0.651 | 0.525 | 0.561 | 0.353 | 0.78 | 0.76 | 1.02 | 0.504 | 0.735 | 0.825 |
| ABC-1 | 0.771 | 0.907 | 0.627 | 0.728 | 0.542 | 1.11 | 1.14 | 1.13 | 1.24 | 0.921 | 0.947 | 0.763 | 0.625 | 0.961 | 1.39 | 1.17 | 1.34 | – | 0.999 | 0.821 |
| NCI-H2126 | 0.827 | 0.837 | 0.666 | 0.555 | 0.52 | 0.738 | 0.725 | 0.614 | 0.81 | 0.73 | 0.671 | 0.673 | 0.71 | 0.648 | 1.04 | 1.07 | 0.986 | 0.994 | 1.01 | 0.578 |
| RERF-LC-KJ | 0.812 | 0.77 | 0.245 | 0.551 | 0.561 | 0.805 | 0.62 | 0.674 | 0.761 | 0.972 | 0.932 | 0.843 | 0.891 | 0.967 | 0.875 | 0.893 | 0.799 | 0.782 | 0.752 | 0.226 |
| NCI-H1666 | 0.7 | 0.75 | 0.708 | 0.512 | 0.46 | 1.18 | 0.908 | 0.955 | 1.03 | 1.03 | 0.957 | 0.779 | 0.842 | 0.703 | 1.02 | 1.02 | 0.896 | 1.01 | 0.874 | 1.06 |
| PC-14 | – | 0.57 | 0.258 | 0.27 | 0.225 | 0.831 | 0.744 | 0.801 | 0.451 | 1.09 | 0.97 | 0.884 | 0.774 | 0.332 | 0.895 | 0.909 | 0.82 | 0.918 | 0.855 | 0.755 |
| NCI-H1915 | 0.314 | 0.285 | 0.217 | 0.194 | 0.201 | 0.5 | 0.485 | 0.501 | 0.544 | 1.05 | 1.1 | 1 | 1.06 | 0.974 | 1.01 | 0.851 | 0.883 | 0.873 | 0.832 | 0.426 |
| NCI-H661 | 0.929 | 0.945 | 0.918 | 0.619 | 0.523 | 0.905 | 0.763 | 0.773 | 0.911 | 0.677 | 0.589 | 0.537 | 0.627 | 0.39 | 0.964 | 0.922 | 0.935 | 1.02 | 1.04 | 0.796 |
| SK-MES-1 | 0.866 | 0.703 | 0.329 | 0.333 | 0.289 | 1.17 | 0.966 | 1.05 | 1.21 | 1.14 | 1.05 | 1.01 | 0.812 | 0.552 | 1.06 | 1.05 | 0.915 | 0.963 | 1.06 | 1.04 |
| NCI-H1944 | 0.787 | 0.859 | 0.627 | 0.45 | 0.387 | 0.588 | 0.502 | 0.53 | 0.643 | 1.2 | 1.1 | 1.22 | 1.13 | 0.936 | 1.14 | 1.03 | 0.994 | 1.05 | 1.06 | 0.694 |
| HCC-78 | 0.354 | 0.382 | 0.395 | 0.272 | 0.255 | 0.45 | 0.443 | 0.499 | 0.49 | 0.479 | 0.579 | 0.484 | 0.706 | 0.312 | 0.362 | 0.417 | 0.301 | 0.376 | 0.284 | 0.367 |
